Melting point data for 63 compounds are collected here from a melting point compilation (Tetko et al.; mined from patent text by program, amines drawn as free bases though some values may be those of a salt).

As a reminder, the melting point is the temperature, or range, at which the solid turns liquid.

`O=C(O)C(O)c1ccc(-n2cccc2)cc1` (stereo not drawn) showed a melting point of 168 °C. In the case of `CCCCCS(=O)(=O)NC(=O)CCc1cc(C(C)C)nn1Cc1ccc(C(F)(F)F)cc1Cl`, the melting point is 144 to 145 °C. Under `CCN(c1cccc(OC)c1)c1nc(=O)c2cccnc2s1` stands 136 °C; under `CCN(CC)C(=O)NCCOC(=O)c1cc(Oc2ccc(C(F)(F)F)cc2Cl)ccc1[N+](=O)[O-]`, 89 to 90 °C. Under `C[C@H](NC(=O)OC(C)(C)C)C(=O)NC1CCC(Nc2cccc3c2C(=O)c2ccccc2C3=O)CC1` (stereo partly drawn) stands 151 °C; under `CC(C)(C)C(=O)Oc1nc2c(N)ncnc2n1Cc1ccccc1`, 202 to 204 °C.

Turning to `CCOC(=O)Nc1c(C(=O)O)oc2cc(OCc3ccccc3)ccc12`, the melting point amounted to 198 °C. Under `CC1(C)CCc2c1ccc1c2CCc2cc(O)ccc2-1` stands 152 to 153 °C; under `CCCOc1ccc(S(=O)(=O)N2CCC(C(=O)OCC)CC2)cc1-c1nc2cc3nc[nH]c3cc2c(=O)[nH]1`, 145 to 147 °C; under `COc1ccc2cc3c(Cl)nn(CCN(C)C)c3nc2c1`, 86 to 88 °C. Under `CNC(=O)c1ccccc1Nc1nc(Nc2ccc3c(c2)CCOCC3)ncc1Cl` stands 185 °C; under `CCCN=C(N)Nc1ccnc(CCCCC(N)=O)n1`, 212 to 214 °C; under `O=C1Nc2cccc(F)c2C12COc1cc3c(cc12)OCCO3` (stereo not drawn), 282 to 285 °C. In the case of `CCOC(=O)N1CC1C(N)=O` (stereo not drawn), the melting point was in the range of 125 to 128 °C. Under `COc1cc(C(C)=O)ccc1OCCCN1CCC(C(O)(c2ccccc2)c2ccc(F)cc2)CC1` (stereo not drawn) stands 147 to 148 °C; under `COc1c(Cl)cccc1NS(=O)(=O)c1cc(S(=O)(=O)Nc2cccc(Cl)c2OC)c2cc(O)ccc2c1`, 164 to 166 °C.

Regarding `CC(C)NS(=O)(=O)c1cccc(F)c1C#N`, the melting point was 184 to 189 °C. `N#CC(CN)C(CO)c1ccc(Cl)c(Cl)c1` (single isomer, unassigned; (+)) registered a melting point of 80 to 81 °C. Turning to `O=C(O)CCc1ccc(Sc2ccc(CCC(=O)O)cc2C(F)(F)F)c(C(F)(F)F)c1`, the melting point was 175 to 178 °C. Under `CCc1nc(C)c(CC(=O)N(CC)CC)c(=O)n1Cc1ccc(-c2ccccc2-c2nnn[nH]2)cc1` stands 125 to 131 °C. Under `Clc1cccc(Cc2ccc(OCCCn3cccn3)c(Cl)c2)c1` stands 52.5 °C. `CCCCNc1nc(C=O)c(C#N)cc1C(=O)OCC` returned a melting point of 81 to 83 °C. Under `CCC(NC(C)=O)c1ccc(Cl)c2nc3n(c12)CCCN3c1ccc(Cl)cc1Cl` (stereo not drawn) stands 237 to 239 °C; under `Cc1ccc(-c2cc(=S)ss2)nn1`, 242 °C; under `NC(=O)N(O)CCOCc1ccco1`, 72 to 75 °C. Under `CCOC(=O)C1=C(C)NC(=O)N(CCCN(C)Cc2ccccc2)C1c1cccc(Cl)c1Cl` (stereo not drawn) stands 154 to 156 °C. On to `Cc1ncc2c(c1OCC(=O)O)COC2(C)c1ccc(F)cc1` (stereo not drawn), for which the melting point fell in the range of 184 to 186 °C. Compound `Cc1ccc(-c2nc3ccccc3nc2-c2ccc(C)cc2)cc1` returned a melting point of 149 °C.

On to `Cc1c2cnc3c([N+](=O)[O-])cccc3c2nn1C`, for which the melting point was 235 to 236 °C. Under `Cc1nc2sc3c(NCCCN4CCCC4=O)ncnc3c2c2c1CCC(C)(C)C2` stands 205 to 206 °C; under `S=C1NC(c2ccc(Cl)cc2)c2ccccc2C1CCN1CCOCC1` (stereo not drawn), 228 to 231 °C; under `CCNC(=O)C1=CSC(Cl)N1[Si](C)(C)C` (stereo not drawn), 101 to 103 °C. As to `CCOC(=O)c1[nH]c2cc(Cl)cc(Cl)c2c1NCCC(=O)c1ccc(C(F)(F)F)cc1`, the melting point was in the range of 232 to 234 °C. With `Cc1nc(C)c(-c2cncc(OC3SCC(O)C(O)C3O)c2)s1` (stereo not drawn), the melting point came to 150 °C. Under `CS(=O)(=O)c1ccc(OCC2CCN(CC3CC3)CC2)cc1` stands 134 to 135 °C; under `COc1cccc(/C(=C\C=C\C(=O)NCCCCc2cccnc2)c2cccc(F)c2)c1`, 96 to 98 °C.

In turn, `COc1ccc(-c2ccc(OC3SCC(OC(C)=O)C(OC(C)=O)C3OC(C)=O)cn2)cc1` (stereo not drawn) yielded a melting point of 208 °C. Turning to `CC1(C)Oc2ccsc2C(NC(=O)c2ccc(C(F)(F)F)cc2)C1O` (stereo not drawn), the melting point lay in the range of 162 to 163 °C.

As to `Cn1ncc(CO)c1-c1ccc(Cl)cc1C(O)c1ccccc1F` (stereo not drawn), the melting point lay within 152 to 155 °C. In the case of `CCNc1nc2ccccc2n2c(C(C)C)nnc12`, the melting point was in the range of 209 to 211 °C. In turn, `CO/C=C1/C(=O)NC(=O)c2cc(Br)ccc21` showed a melting point of 242 to 243 °C. Compound `CCOc1ncc(C(C)=O)cc1C(=O)Nc1c(C(N)=O)nn(C2CN(C(=O)OC(C)(C)C)C2)c1CC` gave a melting point of 220 to 223 °C. For `COc1c(C)cc(-c2cc(-c3ccc(S(C)(=O)=O)cc3)c(N3CCOCC3)s2)nc1C`, the melting point amounted to 152 °C. Under `Nc1nc(F)c(C(F)(F)F)cc1Cl` stands 101 to 103 °C; under `Cc1ccc2c(c1)c1cc(C(=O)c3ccccc3C(=O)O)ccc1n2CCC#N`, 190 °C. Under `CNc1nc(-c2ccc(F)cc2)c(I)c(C(C)C)n1` stands 195 to 196 °C; under `O=C(Cn1cnnn1)OCc1ccccc1`, 69 to 72 °C; under `CCCCCCCCC=CCCCCCCCCCCCCNC(=O)C=CC(=O)O`, 55 °C. In the case of `COc1ccc(CC2SC(=O)NC2=O)c2c1N(Cc1ccc([N+](=O)[O-])cc1)C(=O)CC2` (stereo not drawn), the melting point was 246 to 247 °C. Under `O=C1CC(c2ccccc2)c2ccc(Cl)cc21` (stereo not drawn) stands 84 to 92 °C; under `CSc1cc(C)nc(SC)c1NC(=O)CBr`, 171 to 172 °C; under `Cc1nc2ccc3c(c2nc1C)OC(CN1CC=C(c2c[nH]c4ccccc24)CC1)CO3` (stereo not drawn), 153 to 155 °C. As to `CCOC(=O)Cc1c(-c2ccc(OC)cc2)sc2c1c(=O)c(C(=O)OCC)cn2Cc1ccccc1F`, the melting point was in the range of 199 to 201 °C. Under `CN(C)c1cc2c(cc1Cl)NC(=O)CC(c1cccc(-c3nc(CN4CCOCC4)cs3)c1)=N2` stands 138 to 143 °C; under `Cc1cc(S(=O)(=O)Nc2cccc(Br)c2)c2c(C)ccc(C(C)C)cc1-2`, 172 to 174 °C; under `O=Cc1ccc(-c2ccccc2-c2nnn[nH]2)cc1`, 189 to 190 °C. Under `COc1nc(-c2cc(C)c(OCCCc3cc(C)no3)c(C)c2)no1` stands 64.5 to 65.5 °C. Under `O=C(c1ccc(-c2ccccc2)cc1)C(Br)CC(=O)N1CCC[C@H]1C(=O)O` (stereo partly drawn) stands 131 to 133 °C; under `CC#CC(C)(C)NC(=O)C(CC)Oc1ccc2ncc(Cl)cc2c1` (stereo not drawn), 105 to 107 °C; under `Fc1cccc(COc2ccc(Nc3ncnc4cc(C#Cc5ncccn5)sc34)cc2Cl)c1`, 236 to 240 °C. `CC(C)(C)c1ccc(C(=O)Nc2cn3cc(F)ccc3n2)cc1` showed a melting point of 250 to 251 °C. The compound `CC(=O)N[C@H]1CC[C@H](CCN2CCC(c3cccc4c3CCO4)CC2)CC1` showed a melting point of 183 °C.

The compound `COc1ccc(C=CCN2CCc3nc(N)sc3CC2)cc1OC` had a melting point of 122 to 126 °C.
